Values of other authors, collected in patent US7452858B2, “Treatment of gestational diabetes” (Amylin Pharmaceuticals, Inc., priority 1999, dated 2008).
Like-named read-outs stand apart in the source and are kept apart here. Where no end group is shown, it is not given here.

Columns and labels:
[1] = system: cloned GLP-1 receptor; settings: transfected cells
[2] = rats, intracerebroventricular injection
[3] = mice, peripheral injection

For “exendin[9-39]: C-terminally truncated exendin peptide, a carboxyamidated molecule, reported antagonist of GLP-1”, the “action at the cloned GLP-1 receptor (cAMP)” value [1] is given as “antagonist”.

In the case of “GLP-1 [7-36]NH2 (HAEGTFTSDVSSYLEGQAAKEFIAWLVKGR-NH2)”, the “effect on food intake” value [2] is given as “inhibits food intake” and the “effect on food intake” value [3] is given as “does not inhibit food intake”.
